From patent US9302999B2, “Substituted triazoles as herbicides” (E. I. DU PONT DE NEMOURS AND COMPANY, priority 2012, dated 2016)

Tests used:
Assay type in all cases: in vivo
[1] = tested on: velvetleaf (Abutilon theophrasti); experiment: Test F pre-/postemergence: velvetleaf; conditions: Preemergence
From the text: (§1) Seeds of plant species selected from corn (Zea mays), soybean (Glycine max), velvetleaf (Abutilon theophrasti), lambsquarters (Chenopodium album), poinsettia, wild (wild poinsettia, Euphorbia heterophylla), pigweed, palmer (palmer pigweed, Amaranthus palmeri), waterhemp (common waterhemp, Amaranthus rudis), surinam grass (Brachiaria decumbens), crabgrass, Brazil (Brazilian crabgrass, Digitaria horizontalis), panicum, fall (fall panicum Panicum dichotomiflorum), crabgrass, large (large crabgrass, Digitaria sanguinalis), foxtail, giant (giant foxtail, Setaria faberii), foxtail, green (green foxtail Setaria viridis), goosegrass (Eleusine indica), ragweed (common ragweed, Ambrosia elatior), barnyardgrass (Echinochloa crus-galli), sandbur (southern sandbur, Cenchrus echinatus), arrowleaf sida (Sida rhombifolia), ryegrass, Italian (Italian ryegrass, Lolium multiflorum), dayflower, VA (Virginia (VA) dayflower, Commelina virginica), field bindweed (Convolvulus arvensis), cocklebur (common cocklebur, Xanthium strumarium), morningglory (Ipomoea coccinea), nightshade (eastern black nightshade, Solanum ptycanthum), kochia (Kochia scoparia), nutsedge, yellow (yellow nutsedge, Cyperus esculentus), johnsongrass (Sorghum halepense), smartweed (ladysthumb smartweed, Polygonum persicaria), and beggarticks (hairy beggarticks, Bidens pilosa), were planted into a silt loam soil and treated preemergence with test chemicals formulated in a non-phytotoxic solvent mixture which included a surfactant. At the same time, plants selected from these crop and weed species and also pigweed (Amaranthus retroflexus), waterhemp_RES1 (ALS/Triazine resistant common waterhemp, Amaranthus rudis) and waterhemp_RES2 (ALS/HPPD resistant common waterhemp, Amaranthus rudis) were planted in pots containing a planting medium comprising spaghnum peat moss, vermiculite, wetting agent and starter nutrients treated with postemergence applications of some of the test chemicals formulated in the same manner. Plants ranged in height from 2 to 18 cm for postemergence treatments (1- to 4-leaf stage).
(§2) Treated plants and controls were maintained in a greenhouse for 14 to 21 days, after which time all species were compared to controls and visually evaluated. Plant response ratings, summarized in Table E, are based on a scale of 0 to 100 where 0 is no effect and 100 is complete control. A dash (-) response means no test result.

[2] = tested on: poinsettia, wild (wild poinsettia, Euphorbia heterophylla); experiment: Test F pre-/postemergence: poinsettia, wild
From the text: as §1, §2

[3] = tested on: foxtail, giant (giant foxtail, Setaria faberii); experiment: Test F pre-/postemergence: foxtail, giant; conditions: Preemergence
From the text: as §1, §2

[4] = tested on: nightshade (eastern black nightshade, Solanum ptycanthum); experiment: Test F pre-/postemergence: nightshade; conditions: Preemergence
From the text: as §1, §2

kochia (Kochia scoparia) = experiment: Test F pre-/postemergence: kochia; conditions: Preemergence
From the text: as §1, §2

[5] = tested on: nutsedge, yellow (yellow nutsedge, Cyperus esculentus); experiment: Test F pre-/postemergence: nutsedge, yellow; conditions: Preemergence
From the text: as §1, §2

Waterhemp = experiment: Test C postemergence: waterhemp
From the text: At the same time, plants selected from these crop and weed species and also barley (winter barley, Hordeum vulgare), canarygrass (Phalaris minor), chickweed (common chickweed, Stellaria media) windgrass (Apera spica-venti) and deadnettle (henbit deadnettle, Lamium amplexicaule) were planted in pots containing Redi-Earth® planting medium (Scotts Company, 14111 Scottslawn Road, Marysville, Ohio 43041) comprising spaghnum peat moss, vermiculite, wetting agent and starter nutrients and treated with postemergence applications of test chemicals formulated in the same manner. Plants ranged in height from 2 to 18 cm (1- to 4-leaf stage) for postemergence treatments.
as §2, with “13” for “14”, “15” for “21”, “C,” for “E,”

[6] = tested on: velvetleaf (Abutilon theophrasti); experiment: Test E pre-/postemergence: velvetleaf; conditions: Preemergence, scale 0 to 100
From the text: (§3) Seeds of plant species selected from corn (Zea mays), soybean (Glycine max), velvetleaf (Abutilon theophrasti), lambsquarters (Chenopodium album), poinsettia, wild (wild poinsettia, Euphorbia heterophylla), pigweed, palmer (palmer pigweed, Amaranthus palmeri), waterhemp (common waterhemp, Amaranthus rudis), smartweed (ladysthumb smartweed, Polygonum persicaria), surinam grass (Brachiaria decumbens), crabgrass, large (large crabgrass, Digitaria sanguinalis), crabgrass, Brazil (Brazilian crabgrass, Digitaria horizontalis), panicum, fall (fall panicum, Panicum dichotomiflorum), foxtail, giant (giant foxtail, Setaria faberii), foxtail, green (green foxtail, Setaria viridis), goosegrass (Eleusine indica), johnsongrass (Sorghum halepense), ragweed (common ragweed, Ambrosia elation), barnyardgrass (Echinochloa crus-galli), sandbur (southern sandbur, Cenchrus echinatus), arrowleaf sida (Sida rhombifolia), ryegrass, Italian (Italian ryegrass, Lolium multiflorum), dayflower, (VA) (Virginia dayflower, Commelina virginica), field bindweed (Convolvulus arvensis), cocklebur (common cocklebur, Xanthium strumarium), morningglory (Ipomoea coccinea), nightshade (eastern black nightshade, Solanum ptycanthum), kochia (Kochia scoparia), nutsedge, yellow (yellow nutsedge, Cyperus esculentus) and beggarticks (hairy beggarticks, Bidens pilosa) were planted into a silt loam soil and treated preemergence with test chemicals formulated in a non-phytotoxic solvent mixture which included a surfactant. At the same time, plants selected from these crop and weed species were planted in pots containing a growing medium comprising spaghnum peat moss, vermiculite, wetting agent and starter nutrients and treated with postemergence applications of some of the test chemicals formulated in the same manner. Plants ranged in height from 2 to 18 cm for postemergence treatments (1- to 4-leaf stage).
as §2

[7] = tested on: johnsongrass (Sorghum halepense); experiment: Test E pre-/postemergence: johnsongrass; conditions: Preemergence, scale 0 to 100
From the text: as §3, §2

[8] = tested on: ragweed (common ragweed, Ambrosia elation); experiment: Test E pre-/postemergence: ragweed; conditions: Preemergence, scale 0 to 100
From the text: as §3, §2

[9] = 4 g ai/ha, scale 0 to 100, 0 no effect, 100 complete control
[10] = 8 g ai/ha, scale 0 to 100, 0 no effect, 100 complete control
[11] = 16 g ai/ha, scale 0 to 100 (0 no effect, 100 complete control)
[12] = 31 g ai/ha, scale 0 to 100 (0 no effect, 100 complete control)
[13] = Preemergence, 16 g ai/ha, scale 0 to 100 (0 no effect, 100 complete control)
[14] = Preemergence, 31 g ai/ha, scale 0 to 100 (0 no effect, 100 complete control)

Cc1nn(-c2ccc(C(F)(F)F)c(F)c2)nc1Cc1ccnc(C(F)(F)F)c1 [Compound 162]
Plant response rating, Velvetleaf [1, 9]: 0
Plant response rating, Velvetleaf [1, 10]: 0
Plant response rating, Velvetleaf [1, 11]: 0
Plant response rating, Velvetleaf [1, 12]: 0
Plant response rating, Poinsettia, Wild ([2]; Postemergence, 4 g ai/ha, scale 0 to 100): 15
Plant response rating, Poinsettia, Wild ([2]; Postemergence, 8 g ai/ha, scale 0 to 100): 30
Plant response rating, Poinsettia, Wild ([2]; Postemergence, 16 g ai/ha, scale 0 to 100): 60
Plant response rating, Poinsettia, Wild ([2]; Postemergence, 31 g ai/ha, scale 0 to 100): 75
Plant response rating, Poinsettia, Wild ([2]; Postemergence, 62 g ai/ha, scale 0 to 100): 80
Plant response rating, Poinsettia, Wild ([2]; Preemergence, 4 g ai/ha, scale 0 to 100, 0 no effect, 100 complete control): 0
Plant response rating, Poinsettia, Wild ([2]; Preemergence, 8 g ai/ha, scale 0 to 100, 0 no effect, 100 complete control): 0
Plant response rating, Poinsettia, Wild [2, 13]: 0
Plant response rating, Poinsettia, Wild [2, 14]: 10
Plant response rating, Foxtail, Giant [3, 9]: 0
Plant response rating, Foxtail, Giant [3, 10]: 20
Plant response rating, Foxtail, Giant [3, 11]: 70
Plant response rating, Foxtail, Giant [3, 12]: 100
Plant response rating, Foxtail, Giant ([3]; 62 g ai/ha, scale 0 to 100): 100
Plant response rating, Nightshade [4, 9]: 0
Plant response rating, Nightshade [4, 10]: 0
Plant response rating, Nightshade [4, 11]: 5
Plant response rating, Kochia (kochia (Kochia scoparia); [9]): 30
Plant response rating, Kochia (kochia (Kochia scoparia); [12]): 70
Plant response rating, Kochia (kochia (Kochia scoparia); 62 g ai/ha, scale 0 to 100): 98
Plant response rating, Nutsedge, Yellow [5, 9]: 0
Plant response rating, Nutsedge, Yellow [5, 10]: 0
Plant response rating, Nutsedge, Yellow [5, 11]: 35
Plant response rating, Nutsedge, Yellow [5, 12]: 35
Plant response rating, Waterhemp (Waterhemp; [12]): 98
Plant response rating, Waterhemp (Waterhemp; 62 g ai/ha, scale 0 to 100 (0 no effect, 100 complete control)): 100
Plant response rating, Waterhemp (Waterhemp; 250 g ai/ha, scale 0 to 100): 100

Cc1nn(-c2ccc(C(F)(F)F)cc2)nc1Cc1ccnc(C(F)(F)F)c1 [Compound 47, 4-[[5-methyl-2-[4-(trifluoromethyl)phenyl]-2H-1,2,3-triazol-4-yl]methyl]-2-(trifluoromethyl)pyridine]
Plant response rating: Velvetleaf ([6]; 16 g ai/ha): 30
Plant response rating: Velvetleaf ([6]; 31 g ai/ha): 40
Plant response rating: Velvetleaf ([6]; 62 g ai/ha): 40
Plant response rating: Velvetleaf ([6]; 125 g ai/ha): 75
Plant response rating: Velvetleaf ([6]; 250 g ai/ha): 100
Plant response rating: Johnsongrass ([7]; 16 g ai/ha): 25
Plant response rating: Johnsongrass ([7]; 31 g ai/ha): 30
Plant response rating: Johnsongrass ([7]; 62 g ai/ha): 35
Plant response rating: Johnsongrass ([7]; 125 g ai/ha): 40
Plant response rating: Johnsongrass ([7]; 250 g ai/ha): 100
Plant response rating: Ragweed ([8]; 16 g ai/ha): 0
Plant response rating: Ragweed ([8]; 31 g ai/ha): 0
Plant response rating: Ragweed ([8]; 62 g ai/ha): 10
Plant response rating: Ragweed ([8]; 125 g ai/ha): 50
Plant response rating: Ragweed ([8]; 250 g ai/ha): 90

Fc1ccc(-n2nc(Cc3ccnc(C(F)(F)F)c3)c(OCC(F)(F)F)n2)cc1 [Compound 142]
Plant response rating, Velvetleaf [1, 11]: 0
Plant response rating, Velvetleaf [1, 12]: 0
Plant response rating, Velvetleaf ([1]; 125 g ai/ha, scale 0 to 100): 75
Plant response rating, Poinsettia, Wild [2, 13]: 0
Plant response rating, Poinsettia, Wild [2, 14]: 10
Plant response rating, Poinsettia, Wild ([2]; Preemergence, 125 g ai/ha, scale 0 to 100): 70
Plant response rating, Foxtail, Giant [3, 11]: 35
Plant response rating, Foxtail, Giant [3, 12]: 75
Plant response rating, Foxtail, Giant ([3]; 62 g ai/ha, scale 0 to 100): 100
Plant response rating, Foxtail, Giant ([3]; 125 g ai/ha, scale 0 to 100): 100
Plant response rating, Nightshade [4, 11]: 65
Plant response rating, Nightshade [4, 12]: 80
Plant response rating, Nightshade ([4]; 125 g ai/ha, scale 0 to 100): 98
Plant response rating, Kochia (kochia (Kochia scoparia); [11]): 20
Plant response rating, Kochia (kochia (Kochia scoparia); [12]): 80
Plant response rating, Kochia (kochia (Kochia scoparia); 62 g ai/ha, scale 0 to 100): 85
Plant response rating, Kochia (kochia (Kochia scoparia); 125 g ai/ha, scale 0 to 100): 95
Plant response rating, Nutsedge, Yellow [5, 11]: 0
Plant response rating, Nutsedge, Yellow [5, 12]: 0
Plant response rating, Nutsedge, Yellow ([5]; 125 g ai/ha, scale 0 to 100): 0
